Measured values published in article PMC12208134, “Structure-activity relationships of 1,5-dihydro-2H-benzo[b][1,4]diazepine-2,4(3H)-diones as inhibitors of Trypanosoma cruzi” (RSC medicinal chemistry, 2025).
Converted amounts (≈) assume the structure as drawn. “And” between values parts separate entries of the source, which are not always exact repeats. Equal entries are not always repeated. Where two headings read alike, the source gives them in different places.

Legend:
[1] = Human liver microsomal intrinsic clearance; format: in vitro ADME
[2] = system: intracellular T. cruzi amastigotes; test: T. cruzi intracellular potency assay (high content imaging); format: cell-based, Trypanosoma cruzi; parameters: key to Max Effect (T. cruzi): % inhibition; 0% = DMSO control, 100% = 16 μM nifurtimox control; conditions: for Hill slope (T. cruzi) / Max Effect (T. cruzi) / pEC50 (T. cruzi) / Emax / EC50: individual replicate; for Emax / IC50 / EC50: Trypanosoma cruzi; for Emax: read-out: Max Effect (T. cruzi); for IC50: read-out: T. cruzi pIC50 (converted); for EC50: read-out: pEC50 (T. cruzi) (converted)
Method: (§1) T. cruzi intracellular potency and rate-of-kill assay (high content imaging) ^1
(§2) Silvio X10/7 T. cruzi trypomastigotes were incubated at 37°C 5% CO2 with 1.6×10^7 Vero cells overnight at MOI10 in MEM media supplemented with 10% foetal calf serum (FCS). Extracellular parasites were removed by aspirating cell culture supernatant, and washing Vero monolayer with 10 ml serum-free MEM three times. Vero cells were then harvested by trypsinization and dispensed at 2×10^3 per well (50 μl in MEM/ 1% FCS) into 384 well plates pre-stamped with compounds in DMSO using automated washer/ dispenser EL406 and liquid handling software (Biotek). Plates were then incubated at 37°C in 5% CO2 for 96 h. For rate-of-kill determination, plates were incubated for 24h, 48h, 72h and 96h.
(§3) Plates were subsequently fixed with 4% formaldehyde for 20 min, permeabilised and stained with 5 μgml^-1 Hoechst 33342/ 0.1% Triton/ PBS Thimerosal 20 min. Automated imaging was performed by an Operetta high content imaging system using 20x objective (PerkinElmer). Images were analysed with an algorithm generated in Columbus (PerkinElmer) to segment Vero cell nuclei, Vero cell cytoplasm and parasite nuclei/ kinetoplasts, reporting number of amastigotes per Vero cell, percent infected Vero cells and total number of Vero cells. Compound potencies against T. cruzi parasites were calculated in IDBS Activitybase using percent infected Vero cells and Vero toxicity curves generated using number of host cells. All data was normalised to percent inhibition based on the raw data values for the 100% effect control (16 μM nifurtimox) and the 0% effect control (DMSO) on each plate at each time point. Curve fitting was carried out using a four-parameter equation as previously described. ^2 For rate-of-kill experiments the percent infected cells at each compound concentration was plotted against time.

[3] = system: host Vero cell; test: Vero host cell toxicity in the intracellular T. cruzi assay; format: cell-based; parameters: key to Max Effect (Vero): % inhibition; 0% = DMSO control, 100% = 16 μM nifurtimox control; conditions: for Max Effect (Vero) / pEC50 (Vero) / EC50 / Hill Slope (Vero): individual replicate; for EC50 / IC50: Chlorocebus sabaeus; for EC50: Vero; for IC50: read-out: Vero pIC50 (converted)
Method: as §1, §2, §3

[4] = ChromLogD pH7.4 (chromatographic hydrophobicity index), PFI, LLE; conditions: for PFI: ChromLogDpH7.4 + no. aromatic rings
From the text: [23] Alongside PFI, LLE (ligand lipophilic efficiency, T. cruzi pIC50 - ChromLogDpH7.4) was also monitored to identify changes where the impact on potency was not driven by increasing lipophilicity.

[5] = Kinetic aqueous solubility by CAD; format: physicochemical
[6] = Mouse liver microsomal intrinsic clearance; format: in vitro ADME
[7] = intracellular amastigotes in Vero cells, 96 h, mean of N ≥ 3
[8] = kinetic from dmso stock, kinetic, CAD, read-out: Aqueous solubility

| HLM CLi ([1]; human liver microsomes) | MLM CLi ([6]; mouse liver microsomes) | chromatographic logD ([4]; pH 7.4) | solubility [5, 8] | Compound | Hill slope (T. cruzi) [2] | Max Effect (T. cruzi) [2] | pEC50 (T. cruzi) [2] | Max Effect (Vero) [3] | pEC50 (Vero) [3] | PFI [4] | HLM CLi ([1]; human, microsomes) | Emax [2] | IC50 [2, 7] | EC50 [3] | IC50 ([3]; host Vero cell) | solubility ([5]; kinetic from dmso stock) | MLM CLi ([6]; mouse, microsomes) | EC50 [2] | other results |
| --- | --- | --- | --- | --- | --- | --- | --- | --- | --- | --- | --- | --- | --- | --- | --- | --- | --- | --- | --- |
| <0.4 mL/min/g | 4.0 mL/min/g | 5.4 | < 1 µM | Cc1ccc(NC(=O)NC2CNc3ccccc3N(c3ccccc3)C2=O)cc1 (centres unmarked) [Compound 11, 1-(2-oxo-1-phenyl-2,3,4,5-tetrahydro-1H-benzo[b][1,4]diazepin-3-yl)-3-(p-tolyl)urea] | 1.3 and 2.0 and 1.7 and 2.2 | 77 and 75 and 73 | 4.7 | 20 and 21 and 9 and 10 |  | 8.4 |  | 67% | 25.1 µM | > 50.1 µM | > 50.1 µM |  |  | 25.1 µM |  |
| <0.4 mL/min/g | 3.5 mL/min/g | 5.7 | 23 µM (≈ 8.89 µg/mL) | Cc1ccc(NC(=O)NC2CN(c3ccccc3)c3ccccc3NC2=O)cc1 (centres unmarked) [Compound 10, 1-(4-oxo-1-phenyl-2,3,4,5-tetrahydro-1H-benzo[b][1,4]diazepin-3-yl)-3-(p-tolyl)urea] | 3.5 and 12.0 and 3.2 and 0.8 | 83 and 85 | 5.0 and 4.9 and 5.3 | 96 and 91 and 95 and 63 | 4.7 and 5.2 and 4.6 and 5.3 | 8.7 |  | 86% | 7.94 µM |  | 12.6 µM |  |  |  | Hill Slope (Vero) [3]: 3.6 and 42.2 and 4.8 and 14.3 |
|  |  |  |  | CC(C)N(C(=O)CN1C(=O)C(N)C(=O)N(c2ccccc2)c2ccccc21)c1ccccc1 (single isomer, unassigned) [14-Ent 1, 2-(3-amino-2,4-dioxo-5-phenyl-2,3,4,5-tetrahydro-1H-benzo[b][1,4]diazepin-1-yl)-N-isopropyl-N-phenylacetamide] | 3.1 and 5.7 | 88 | 6.4 | 27 and 35 | < 4.3 |  |  | 94% |  | > 50.1 µM |  |  |  | 0.316 µM |  |
| <0.4 mL/min/g | 0.7 mL/min/g | 3.5 | 380 µM (≈ 155 µg/mL) | Cc1ccc(NC(=O)NC2C(=O)Nc3ccccc3N(C3CCOCC3)C2=O)cc1 (centres unmarked) [Compound 8, 1-(2,4-dioxo-1-(tetrahydro-2H-pyran-4-yl)-2,3,4,5-tetrahydro-1H-benzo[b][1,4]diazepin-3-yl)-3-(p-tolyl)urea] | 2.6 and 1.3 and 1.9 | 78 and 81 | 4.9 and 4.8 | 17 and 36 and -0.637 and 18 |  | 5.5 |  | 73% | 12.6 µM | > 50.1 µM | > 50.1 µM |  |  | 10 µM |  |
| <0.4 mL/min/g | 1.8 mL/min/g | 4.2 | 25 µM (≈ 9.16 µg/mL) | Cc1ccc(NC(=O)NC2C(=O)Nc3ccccc3N(C(C)C)C2=O)cc1 (centres unmarked) [Compound 7, 1-(1-isopropyl-2,4-dioxo-2,3,4,5-tetrahydro-1H-benzo[b][1,4]diazepin-3-yl)-3-(p-tolyl)urea] | 2.0 and 0.8 and 3.3 and 2.1 | 86 and 58 and 83 and 89 | 4.9 and 5.0 | 25 and 30 and 20 and -11 |  | 6.2 |  |  | 12.6 µM | > 50.1 µM | > 50.1 µM |  |  | 20 µM |  |
| <0.4 mL/min/g | 4.9 mL/min/g | 6.1 | 27 µM (≈ 10.5 µg/mL) | Cc1ccc(NC(=O)NC2COc3ccccc3N(c3ccccc3)C2=O)cc1 (centres unmarked) [Compound 13, 1-(4-oxo-5-phenyl-2,3,4,5-tetrahydrobenzo[b][1,4]oxazepin-3-yl)-3-(p-tolyl)urea] | 2.6 and 8.4 and 3.4 and 2.9 and 1.5 | 84 and 89 and 94 and 80 and 46 | 4.6 and 4.8 and 4.7 and 4.5 and < 4.3 | 80 and 67 and 70 and 76 and 15 and 5.57 | 4.3 and < 4.3 | 9.1 |  |  | 25.1 µM | 39.8 µM | 50.1 µM |  |  |  | Hill Slope (Vero) [3]: 12.0 and 13.9 and 15.1 and 6.4 |
|  |  |  |  | CC(C)N(C(=O)CN1C(=O)C(N)C(=O)N(c2ccccc2)c2ccccc21)c1ccccc1 (single isomer, unassigned) [14-Ent 2, 2-(3-amino-2,4-dioxo-5-phenyl-2,3,4,5-tetrahydro-1H-benzo[b][1,4]diazepin-1-yl)-N-isopropyl-N-phenylacetamide] | 85.9 and 4.0 | 82 | 6.7 and 6.6 | 5.45 and 20 | < 4.3 |  |  |  |  |  |  |  |  |  |  |

| Compound | HLM CLi ([1]; human liver microsomes) | MLM CLi ([6]; mouse liver microsomes) | chromatographic logD ([4]; pH 7.4) | solubility [5, 8] | Hill slope (T. cruzi) [2] | Max Effect (T. cruzi) [2] | pEC50 (T. cruzi) [2] | Max Effect (Vero) [3] | pEC50 (Vero) [3] | PFI [4] | HLM CLi ([1]; human, microsomes) | Emax [2] | IC50 [2, 7] | EC50 [3] | IC50 ([3]; host Vero cell) | solubility ([5]; kinetic from dmso stock) | MLM CLi ([6]; mouse, microsomes) | EC50 [2] | other results |
| --- | --- | --- | --- | --- | --- | --- | --- | --- | --- | --- | --- | --- | --- | --- | --- | --- | --- | --- | --- |
| 3-amino-6-fluoro-1-(4-methoxybenzyl)-5-(4-methoxyphenyl)-1,5-dihydro-2H-benzo[b][1,4]diazepine-2,4(3H)-dione [Compound 22] | <0.4 mL/min/g | 2.2 mL/min/g |  |  | 11.8 and 10.3 and 3.4 and 21.3 | 77 and 98 and 83 and 82 | 7.2 | 3.52 and 24 and 2 and 12 | < 4.3 | 7.2 |  |  |  |  |  |  |  |  | T. cruzi pIC50 [2, 7]: 7.2 ± 0.0; Vero pIC50 ([3]; host Vero cell): <4.3; Chrom LogDpH7.4 ([4]; pH 7.4): 4.2; solubility ([5]; kinetic, CAD, read-out: Aqueous solubility): 168 µM |
| COc1ccc(CN2C(=O)C(N)C(=O)N(c3ccccc3)c3c(F)cccc32)cc1 (centres unmarked) [Compound 21, 3-amino-6-fluoro-1-(4-methoxybenzyl)-5-phenyl-1,5-dihydro-2H-benzo[b][1,4]diazepine-2,4(3H)-dione] |  |  | 4.3 |  | 13.4 and 21.5 and 12.3 and 1.4 and 2.3 and 17.2 | 88 and 90 and 85 | 5.8 and 6.3 and 5.7 | -0.364 and 17 and 0.947 and 18 and 21 and 12 |  | 7.3 | <0.4 mL/min/g | 81% | 1.26 µM | > 50.1 µM | > 50.1 µM | > 217 µM | 9.0 mL/min/g |  |  |
| O=C(Nc1ccc(F)cc1)NC1C(=O)Nc2ccccc2N(c2ccccc2)C1=O (centres unmarked) [Compound 3, 1-(2,4-dioxo-1-phenyl-2,3,4,5-tetrahydro-1H-benzo[b][1,4]diazepin-3-yl)-3-(4-fluorophenyl)urea] |  |  | 4.4 |  | 2.0 and 0.8 and 2.1 and 1.3 | 92 and 95 and 83 | 5.1 and 4.8 | -12 and 14 and 22 and 36 |  | 7.4 | <0.4 mL/min/g | 90% | 10 µM | > 50.1 µM | > 50.1 µM | 26 µM (≈ 10.5 µg/mL) | 0.6 mL/min/g | 12.6 µM |  |
| COc1ccccc1N1C(=O)C(NC(=O)Nc2ccc(C)cc2)C(=O)Nc2ccccc21 (centres unmarked) [Compound 6, 1-(1-(2-methoxyphenyl)-2,4-dioxo-2,3,4,5-tetrahydro-1H-benzo[b][1,4]diazepin-3-yl)-3-(p-tolyl)urea] |  |  | 4.7 |  | 2.9 and 3.1 and 3.8 and 11.3 | 81 and 90 and 77 | 4.6 and 4.3 | 38 and 21 and 11 and 12 |  | 7.7 | <0.4 mL/min/g | 79% | 31.6 µM | > 50.1 µM | > 50.1 µM | 129 µM (≈ 55.5 µg/mL) | 2.1 mL/min/g | 31.6 µM |  |
| COc1ccc(CN2C(=O)CC(=O)N(c3ccc(OC)cc3)c3ccccc32)cc1 [Compound 23, 1-(4-methoxybenzyl)-5-(4-methoxyphenyl)-1,5-dihydro-2H-benzo[b][1,4]diazepine-2,4(3H)-dione] |  |  | 5.1 |  |  | 39 and 11 and 27 and 29 |  | 2.11 and 2.25 and 31 and 32 |  | 8.1 | >37 mL/min/g |  | > 50.1 µM | > 50.1 µM | > 50.1 µM | 175 µM (≈ 70.4 µg/mL) | 80 mL/min/g | > 50.1 µM |  |
